Experimental data as given in US20230048678A1, “ICAN DERIVATIVES FOR ANTIFUNGAL USE” (DEBRECENI EGYETEM, priority 2019, published 2023).

How the values were obtained:
[1] = test system: C. parapsilosis ATCC 22019; assay: CLSI broth microdilution susceptibility (Table 1); type: cell-based; conditions: 48 h, 35° C.
Experimental: (§1) ICAN has 3 key moieties, namely the amino, naphthalene and isonitrile. To find out which ones of them are essential for the antifungal behavior and to design more efficient derivatives, comparative studies were carried out, where one of the moieties was exchanged or eliminated. All ICAN derivatives were tested against C. albicans SC5314, C. krusei ATCC 6258 and C. parapsilosis ATCC 22019. The antifungal agents were dissolved in 100% DMSO and diluted further in RPMI-1640 (with L-glutamine but without bicarbonate) and buffered to pH 7.0 with 0.165 M morpholinopropanesulfonic acid (MOPS). MICs were read visually after 48-h incubation at 35° C. using the partial (50%) inhibition (for ICAN derivatives) (PI) and total inhibition (for AMB and ICAN derivatives) (TI) criteria. MICs were determined at least twice.
(§2) The tested C. albicans, C. tropicalis, C. parapsilosis, C. glabrata and C. krusei ATCC strains and clinical isolates are listed in Table 2. MICs were determined according to the CLSI M27-A3 [22]. Antifungal agents were dissolved in 100% DMSO and diluted further in RPMI-1640 (with L-glutamine but without bicarbonate) (Sigma, Budapest, Hungary), and buffered to pH 7.0 with 0.165 M morpholinopropanesulfonic acid (MOPS; Sigma, Budapest, Hungary). The final concentration ranges used for AMB and ICAN derivatives were 0.125 to 4 μg/ml and 0.04 to 20 μg/ml, respectively. Yeast cell suspensions were prepared in RPMI 1640 medium and were adjusted to give a final inoculum concentration of 0.5×10^3 to 2.5×10^3 cells/ml. MICs were read visually after 48-h incubation at 35° C. using the partial (50%) inhibition (for ICAN derivatives) (PI) and total inhibition (for AMB and ICAN derivatives) (TI) criteria. MICs were determined at least twice. For amphotericin B isolates with MIC values of ≤2 mg/L were considered wild-types. [Pfaller M A, 2012]

C. krusei ATCC 6258 = assay: CLSI broth microdilution susceptibility (Table 1); type: cell-based; conditions: 48 h, 35° C.
Experimental: as §1, §2

C. albicans SC5314 = assay: CLSI broth microdilution susceptibility (Table 1); type: cell-based; conditions: 48 h, 35° C.
Experimental: as §1, §2

[2] = test system: C. albicans SC5314, C. krusei ATCC 6258 and C. parapsilosis ATCC 22019; assay: CLSI broth microdilution, MIC summarised over the three Candida test strains; type: cell-based; conditions: value or range over the three Candida strains of Table 1, total inhibition
Experimental: as §1, §2

human cell cultures = assay: MTT bio assay cytotoxicity; type: cell-based; conditions: MTT bio assay technique
HaCat cells = assay: HaCat cell damage during time-lapse imaging; type: cell-based, human; conditions: under 24 hours, MICAN-treated infected cultures
Excerpt: (§3) As we mentioned in the Background art, studies have been carried out to successfully utilize 1-N-methylamino-5-isocyanonaphthalene (MICAN) as vital cell dye on different human cell lines [Nagy Z L, 2018]. […] Since these dyes are nonpolar, they are expected to easily bind to and stain the nonpolar chitin in the cell wall of different fungi species. We tested this assumption on common yeast from a local shop, and much to our surprise after staining, the yeast cells stopped growing and died in a short time. Repeated experiments led to the same conclusion; however, the applied dye concentration was well below the LD50 determined for human cells. We assumed that these compounds may have antifungal effect, therefore C. albicans, one of the most common human pathogenic fungi was selected for further tests. HaCat cell cultures (spontaneously transformed aneuploid immortal keratinocyte cells from adult human skin) were infected with C. albicans 3666 (same isolate as used in animal experiments) and were treated with different concentrations of MICAN dissolved in DMSO. The fungal growth was followed by time lapse imaging for 24 hours. […] It should be noted, however, that in the case of the untreated HaCat cells the fungal growth exceeded 1000% (24 h) calculated from the hyphal area (FIG. 1b, DMSO control).

[3] = test system: commercial strain of Saccharomyces cerevisiae; assay: Staining/growth of common yeast; type: cell-based
Excerpt: as §3

C. albicans 3666 = assay: Time-lapse imaging of fungal growth in infected HaCat cultures; type: cell-based; conditions: 7.5 μg/ml, HaCat cells infected with C. albicans 3666, 24 h; DMSO control exceeded 1000%
Excerpt: As we mentioned in the Background art, studies have been carried out to successfully utilize 1-N-methylamino-5-isocyanonaphthalene (MICAN) as vital cell dye on different human cell lines [Nagy Z L, 2018]. […] Since these dyes are nonpolar, they are expected to easily bind to and stain the nonpolar chitin in the cell wall of different fungi species. We tested this assumption on common yeast from a local shop, and much to our surprise after staining, the yeast cells stopped growing and died in a short time. Repeated experiments led to the same conclusion; however, the applied dye concentration was well below the LD50 determined for human cells. […] It should be noted, however, that in the case of the untreated HaCat cells the fungal growth exceeded 1000% (24 h) calculated from the hyphal area (FIG. 1b, DMSO control). […]
Image analysis plug-ins were developed by a Java-based image processing software, The ImageJ v1.39d (US National Institutes of Health) program enabled the quantitative analysis of fungi. The software is requesting a set of data for the analysis from the user, along with the directory in which the bank of images to be analysed are contained. Image processing and quantitative image analysis were carried out as previously described [Nagy G, 2014]. […]

For `[C-]#[N+]c1cccc2c(NC)cccc12` [MICAN, N-methyl-1-amino-5-isocyanonaphthalene], the MICPI ([1]; partial (50%) inhibition) was 0.15 µg/mL, the MICTI ([1]; total inhibition) was 0.75 µg/mL and the MICPI (C. krusei ATCC 6258; partial (50%) inhibition) was 0.15 µg/mL. For the same compound, the MICTI (C. krusei ATCC 6258; total inhibition) was 1.25 µg/mL, the MICPI (C. albicans SC5314; partial (50%) inhibition) was 0.3 µg/mL and the MICTI (C. albicans SC5314; total inhibition) was 1.25 µg/mL. The MICTI [2] was 0.75 to 1.25 µg/mL, the LD50 (human cell cultures) was 18 µg/mL and the “damage of treated HaCat cells” value (HaCat cells) was “no sign of damage”. The “antifungal effect on yeast” value [3] was “effective” and the “fungal growth calculated from the hyphal area” value (C. albicans 3666) was ~30%.
